Reference: ChEMBL document CHEMBL4602617, “Discovery and optimization of heteroaryl piperazines as potent and selective PI3Kδ inhibitors” (Bioorg Med Chem Lett, 2020)

Key:
[1] = Clearance in human liver microsomes; format: ADME, Microsome; settings: read-out: CLH
[2] = Volume of drug distribution in dog at 0.5 mg/kg, iv or 1 mg/kg, po; format: ADME, organism-based, Canis lupus familiaris; settings: in vivo
[3] = target: 5-hydroxytryptamine receptor 2C (Homo sapiens) (UniProt P28335); assay: Displacement of [3H]mesulergine from human recombinant 5HT2C receptor expressed in CHOK1 cells at 10 uM incubated for 60 mins by radiometric scintillation assay relative to control; format: cell-based; settings: CHO-K1
5-hydroxytryptamine receptor 2C (Homo sapiens), sequence (P28335 whole entry, the tested form may be a part): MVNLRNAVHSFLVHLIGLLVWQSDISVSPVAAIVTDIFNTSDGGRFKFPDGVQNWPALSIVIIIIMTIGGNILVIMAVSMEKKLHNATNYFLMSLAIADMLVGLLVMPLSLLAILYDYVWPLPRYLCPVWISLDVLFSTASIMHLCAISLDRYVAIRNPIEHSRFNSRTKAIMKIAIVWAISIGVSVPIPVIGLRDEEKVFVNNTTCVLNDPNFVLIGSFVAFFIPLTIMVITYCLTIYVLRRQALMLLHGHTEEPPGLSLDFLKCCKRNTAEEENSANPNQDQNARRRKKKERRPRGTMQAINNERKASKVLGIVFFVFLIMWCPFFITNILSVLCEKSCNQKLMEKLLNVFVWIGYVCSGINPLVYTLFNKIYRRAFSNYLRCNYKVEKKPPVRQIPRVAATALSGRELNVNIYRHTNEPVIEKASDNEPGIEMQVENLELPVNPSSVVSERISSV

[4] = target: Serine/threonine-protein kinase MRCK beta (Homo sapiens, UniProt Q9Y5S2); assay: Inhibition of recombinant human His-tagged MRCKB catalytic domain expressed in baculovirus expression system using serine/threonine-13 peptide as substrate incubated for 60 mins in presence of ATP by Z'-LYTE assay
Ephrin type-B receptor 1 = Ephrin type-B receptor 1 (Homo sapiens, UniProt P54762); assay: Inhibition of recombinant human GST-tagged EPHB1 catalytic domain expressed in baculovirus expression system using tyrosine-2 peptide as substrate incubated for 60 mins in presence of ATP by Z'-LYTE assay
[5] = target: Tyrosine-protein kinase HCK (Homo sapiens, UniProt P08631); assay: Inhibition of recombinant full length N-terminal GST-tagged human HCK expressed in baculovirus expression system using Tyr 02 as substrate after 1 hr in presence of ATP by Z'-LYTE assay
Aurora kinase A = Aurora kinase A (Homo sapiens, UniProt O14965); assay: Inhibition of recombinant human full length AURKA expressed in baculovirus expression system using Ser/Thr-01 peptide as substrate after 1 hr in presence of ATP by Z'LYTE assay
[6] = target: Kappa-type opioid receptor (Homo sapiens) (UniProt P41145); assay: Displacement of [3H]diprenorphine from full length human recombinant KOP receptor expressed in HEK293 cells at 10 uM measured after 60 mins by radiometric scintillation analysis relative to control; format: cell-based
[7] = target: Glutamate receptor ionotropic, AMPA (Rattus norvegicus) (UniProt P19491+P19492+P19493+P19490); assay: Displacement of [3H]AMPA from glutamate AMPA receptor in Wistar rat cerebral cortical membranes at 10 uM incubated for 90 mins by radiometric scintillation analysis relative to control
MAO-A = MAO-A (Homo sapiens, UniProt P21397); assay: Inhibition of recombinant full-length human MAO-A expressed in insect cells at 10 uM using kynuramine as substrate after 60 mins by spectrophotometric analysis relative to control; settings: probe kynuramine
CDK7/Cyclin H/MNAT1 = CDK7/Cyclin H/MNAT1 (Homo sapiens, UniProt P50613); assay: Inhibition of recombinant full length human His-tagged CDK7/CyclinH/MAT1 expressed in baculovirus expression system using CDK7/9tide peptide as substrate incubated for 60 mins in presence of ATP by Adapta assay
[8] = target: Casein kinase I isoform gamma-2 (Homo sapiens, UniProt P78368); assay: Inhibition of recombinant human full-length His-tagged CSNK1G2 expressed in baculovirus expression system using FRET-labeled Ser/Thr 05 peptide as substrate measured after 1 hr in presence of ATP by Z'-lyte assay
Casein kinase I isoform gamma-2, sequence (P78368 whole entry, the tested form may be a part, canonical isoform): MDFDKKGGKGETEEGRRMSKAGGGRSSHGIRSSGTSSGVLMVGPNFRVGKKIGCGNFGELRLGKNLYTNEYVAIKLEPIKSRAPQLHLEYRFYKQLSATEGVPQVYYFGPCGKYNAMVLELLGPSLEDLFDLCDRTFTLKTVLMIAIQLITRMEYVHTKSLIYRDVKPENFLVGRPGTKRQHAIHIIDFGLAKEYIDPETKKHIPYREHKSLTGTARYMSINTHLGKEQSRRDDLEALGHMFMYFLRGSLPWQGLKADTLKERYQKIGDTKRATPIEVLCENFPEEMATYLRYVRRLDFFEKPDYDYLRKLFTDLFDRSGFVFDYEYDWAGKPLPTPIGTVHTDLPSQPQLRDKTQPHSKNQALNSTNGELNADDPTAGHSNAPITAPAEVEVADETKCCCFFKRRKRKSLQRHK

Ephrin type-A receptor 2 = Ephrin type-A receptor 2 (Homo sapiens, UniProt P29317); assay: Inhibition of recombinant human GST-tagged EPHA2 cytoplasmic domain expressed in baculovirus expression system using tyrosine-01 peptide as substrate incubated for 60 mins in presence of ATP by Z'-Lyte assay
Ephrin type-A receptor 2, sequence (P29317 whole entry, the tested form may be a part): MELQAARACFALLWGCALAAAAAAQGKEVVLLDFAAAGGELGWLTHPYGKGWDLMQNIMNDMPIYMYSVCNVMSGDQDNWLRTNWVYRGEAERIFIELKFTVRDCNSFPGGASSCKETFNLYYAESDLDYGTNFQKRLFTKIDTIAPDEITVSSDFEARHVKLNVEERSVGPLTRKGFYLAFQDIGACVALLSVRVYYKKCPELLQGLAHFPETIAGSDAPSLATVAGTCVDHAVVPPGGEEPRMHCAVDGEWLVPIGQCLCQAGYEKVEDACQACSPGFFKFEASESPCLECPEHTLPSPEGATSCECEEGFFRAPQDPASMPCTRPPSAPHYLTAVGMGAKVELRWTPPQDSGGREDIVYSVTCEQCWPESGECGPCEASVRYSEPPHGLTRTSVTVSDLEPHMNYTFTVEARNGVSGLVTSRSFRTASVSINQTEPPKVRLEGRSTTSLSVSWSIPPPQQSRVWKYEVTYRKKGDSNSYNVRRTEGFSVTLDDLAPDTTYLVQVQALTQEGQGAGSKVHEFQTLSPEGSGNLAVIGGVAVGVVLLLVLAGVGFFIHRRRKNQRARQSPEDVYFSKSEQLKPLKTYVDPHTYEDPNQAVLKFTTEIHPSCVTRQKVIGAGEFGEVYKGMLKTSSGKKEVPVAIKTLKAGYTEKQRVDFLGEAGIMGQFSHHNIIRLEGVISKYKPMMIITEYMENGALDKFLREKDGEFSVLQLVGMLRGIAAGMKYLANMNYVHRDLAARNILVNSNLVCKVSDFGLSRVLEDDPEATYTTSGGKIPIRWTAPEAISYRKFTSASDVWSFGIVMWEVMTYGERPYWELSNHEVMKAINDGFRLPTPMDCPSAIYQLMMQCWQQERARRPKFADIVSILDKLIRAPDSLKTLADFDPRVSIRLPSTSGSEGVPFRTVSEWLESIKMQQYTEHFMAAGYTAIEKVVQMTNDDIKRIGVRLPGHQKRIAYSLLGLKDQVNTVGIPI

Ephrin type-A receptor 8 = Ephrin type-A receptor 8 (Homo sapiens, UniProt P29322); assay: Inhibition of recombinant human GST-tagged EPHA8 catalytic domain (565 to 1005 residues) expressed in baculovirus expression system using tyrosine-2 peptide as substrate incubated for 60 mins in presence of ATP by Z'-LYTE assay
Ephrin type-A receptor 8, sequence (P29322 whole entry, the tested form may be a part): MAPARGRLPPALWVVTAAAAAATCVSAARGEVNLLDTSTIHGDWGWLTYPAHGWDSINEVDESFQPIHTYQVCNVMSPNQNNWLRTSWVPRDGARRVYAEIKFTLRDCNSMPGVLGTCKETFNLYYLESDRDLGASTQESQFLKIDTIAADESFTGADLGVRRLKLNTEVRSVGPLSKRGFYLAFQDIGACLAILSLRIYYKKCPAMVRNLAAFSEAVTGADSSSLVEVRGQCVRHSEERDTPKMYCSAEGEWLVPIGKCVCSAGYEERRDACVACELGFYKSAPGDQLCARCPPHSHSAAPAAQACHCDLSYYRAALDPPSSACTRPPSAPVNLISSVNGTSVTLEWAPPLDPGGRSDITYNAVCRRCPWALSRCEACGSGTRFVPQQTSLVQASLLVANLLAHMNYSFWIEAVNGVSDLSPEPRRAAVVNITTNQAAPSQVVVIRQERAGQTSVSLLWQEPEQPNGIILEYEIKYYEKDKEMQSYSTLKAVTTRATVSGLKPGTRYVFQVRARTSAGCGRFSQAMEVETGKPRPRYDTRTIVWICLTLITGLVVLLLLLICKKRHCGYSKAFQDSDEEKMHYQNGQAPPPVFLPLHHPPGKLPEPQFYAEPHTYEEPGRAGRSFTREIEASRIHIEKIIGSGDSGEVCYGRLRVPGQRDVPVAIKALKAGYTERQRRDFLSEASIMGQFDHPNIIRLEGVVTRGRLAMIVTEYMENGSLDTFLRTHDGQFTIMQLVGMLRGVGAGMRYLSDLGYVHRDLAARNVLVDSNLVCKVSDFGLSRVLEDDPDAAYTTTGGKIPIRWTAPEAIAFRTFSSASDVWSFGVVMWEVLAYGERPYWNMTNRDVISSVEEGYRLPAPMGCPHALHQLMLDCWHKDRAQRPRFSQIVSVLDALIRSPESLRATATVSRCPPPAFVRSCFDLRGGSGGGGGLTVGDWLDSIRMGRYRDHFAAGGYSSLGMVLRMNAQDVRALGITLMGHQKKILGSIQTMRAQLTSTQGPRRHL

Ephrin type-B receptor 4 = Ephrin type-B receptor 4 (Homo sapiens, UniProt P54760); assay: Inhibition of recombinant human His-tagged EPHB4 (561 to 987 residues) catalytic domain expressed in baculovirus expression system using tyrosine-01 peptide as substrate incubated for 60 mins in presence of ATP by Z'-LYTE assay
[9] = target: Receptor-type tyrosine-protein kinase FLT3 (Homo sapiens, UniProt P36888); assay: Inhibition of recombinant human His-tagged FLT3 cytoplasmic domain (564 to 958 residues) expressed in baculovirus expression system using tyrosine-2 peptide as substrate incubated for 60 mins in presence of ATP by Z'-LYTE assay
Receptor-type tyrosine-protein kinase FLT3, sequence (P36888 whole entry, the tested form may be a part): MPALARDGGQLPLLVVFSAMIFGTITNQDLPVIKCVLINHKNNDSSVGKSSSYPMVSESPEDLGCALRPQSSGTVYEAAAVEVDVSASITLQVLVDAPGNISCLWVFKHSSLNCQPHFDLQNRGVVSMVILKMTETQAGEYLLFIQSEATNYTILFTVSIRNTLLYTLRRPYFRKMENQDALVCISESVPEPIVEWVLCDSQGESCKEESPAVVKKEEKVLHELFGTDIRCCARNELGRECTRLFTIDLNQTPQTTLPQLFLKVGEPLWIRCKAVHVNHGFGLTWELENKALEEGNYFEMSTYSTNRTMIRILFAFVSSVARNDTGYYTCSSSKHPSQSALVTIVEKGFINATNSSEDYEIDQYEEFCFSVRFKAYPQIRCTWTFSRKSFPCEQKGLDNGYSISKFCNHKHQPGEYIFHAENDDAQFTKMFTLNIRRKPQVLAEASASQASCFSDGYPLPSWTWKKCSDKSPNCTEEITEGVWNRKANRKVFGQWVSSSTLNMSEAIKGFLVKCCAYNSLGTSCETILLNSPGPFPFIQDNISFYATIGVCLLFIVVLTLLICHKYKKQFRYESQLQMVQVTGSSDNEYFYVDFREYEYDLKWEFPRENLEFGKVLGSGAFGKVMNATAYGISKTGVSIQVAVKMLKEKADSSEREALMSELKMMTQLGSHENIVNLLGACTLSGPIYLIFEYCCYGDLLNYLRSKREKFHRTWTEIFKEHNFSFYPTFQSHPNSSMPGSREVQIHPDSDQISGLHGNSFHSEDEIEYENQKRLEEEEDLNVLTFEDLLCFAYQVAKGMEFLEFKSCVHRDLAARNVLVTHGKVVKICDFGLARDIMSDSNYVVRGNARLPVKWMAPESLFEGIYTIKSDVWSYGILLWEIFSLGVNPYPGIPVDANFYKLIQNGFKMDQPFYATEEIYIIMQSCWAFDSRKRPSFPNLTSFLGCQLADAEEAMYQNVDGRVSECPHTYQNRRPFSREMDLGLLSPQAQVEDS

[10] = target: Homeodomain-interacting protein kinase 1 (Homo sapiens, UniProt Q86Z02); assay: Inhibition of recombinant human GST-tagged HIPK1 catalytic domain expressed in baculovirus expression system using serine/threonine-9 peptide as substrate incubated for 60 mins in presence of ATP by Z'-LYTE assay
[11] = target: Mitogen-activated protein kinase 10 (Homo sapiens, UniProt P53779); assay: Inhibition of recombinant full length human GST-tagged JNK3 expressed in baculovirus expression system using serine/threonine-4 peptide as substrate incubated for 60 mins in presence of ATP by Z'-LYTE assay
[12] = target: Mitogen-activated protein kinase 3 (Homo sapiens, UniProt P27361); assay: Inhibition of recombinant full length human GST-tagged ERK1 expressed in Escherichia coli using fluorophore-labeled serine/threonine-3 peptide as substrate incubated for 60 mins in presence of ATP by Z'-LYTE assay
[13] = target: Megakaryocyte-associated tyrosine-protein kinase (Homo sapiens, UniProt P42679); assay: Inhibition of recombinant full length human His-tagged MATK expressed in Escherichia coli using tyr-01 peptide as substrate incubated for 60 mins in presence of ATP by Z'-LYTE assay
Megakaryocyte-associated tyrosine-protein kinase, sequence (P42679 whole entry, the tested form may be a part): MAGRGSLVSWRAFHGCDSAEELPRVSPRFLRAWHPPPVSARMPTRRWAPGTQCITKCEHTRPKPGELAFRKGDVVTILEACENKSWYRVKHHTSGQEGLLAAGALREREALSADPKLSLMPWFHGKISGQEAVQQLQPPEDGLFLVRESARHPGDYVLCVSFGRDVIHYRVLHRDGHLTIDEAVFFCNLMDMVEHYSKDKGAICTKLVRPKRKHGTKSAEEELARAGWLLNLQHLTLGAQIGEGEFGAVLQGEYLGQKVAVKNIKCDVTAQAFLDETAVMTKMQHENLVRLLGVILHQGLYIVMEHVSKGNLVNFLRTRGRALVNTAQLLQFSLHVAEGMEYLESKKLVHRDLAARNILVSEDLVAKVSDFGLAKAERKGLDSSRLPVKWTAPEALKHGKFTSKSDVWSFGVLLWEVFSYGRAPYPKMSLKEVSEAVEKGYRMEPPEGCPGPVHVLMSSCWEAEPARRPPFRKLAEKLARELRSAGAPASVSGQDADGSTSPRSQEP

[14] = target: NT-3 growth factor receptor (Homo sapiens, UniProt Q16288); assay: Inhibition of recombinant human His-tagged TrkC cytoplasmic domain (510 to 825 residues) expressed in baculovirus using tyr 01 as substrate incubated for 1 hr in presence of ATP by Z'-Lyte assay
[15] = target: Serine/threonine-protein kinase PAK 3 (Homo sapiens, UniProt O75914); assay: Inhibition of recombinant full length human His-tagged PAK3 expressed in baculovirus expression system using serine/threonine-20 peptide as substrate incubated for 60 mins in presence of ATP by Z'-LYTE assay
[16] = target: Protein kinase C zeta type (Homo sapiens, UniProt Q05513); assay: Inhibition of recombinant full length human PKCzeta expressed in baculovirus expression system using serine/threonine-7 peptide as substrate incubated for 60 mins in presence of ATP by Z'-LYTE assay
[17] = target: cAMP-dependent protein kinase catalytic subunit PRKX (Homo sapiens, UniProt P51817); assay: Inhibition of recombinant full length human GST-tagged PRKX expressed in baculovirus expression system using serine/threonine-1 peptide as substrate incubated for 60 mins in presence of ATP by Z'-LYTE assay
Focal adhesion kinase 1 = Focal adhesion kinase 1 (Homo sapiens, UniProt Q05397); assay: Inhibition of recombinant full length human GST-tagged PTK2 expressed in baculovirus expression system using tyr07 peptide as substrate incubated for 60 mins in presence of ATP by Z'-LYTE assay
[18] = target: Serine/threonine-protein kinase 4 (Homo sapiens, UniProt Q13043); assay: Inhibition of recombinant full length human GST-tagged MST1 expressed in baculovirus expression system using serine/threonine-7 peptide as substrate incubated for 60 mins in presence of ATP by Z'-LYTE assay
Serine/threonine-protein kinase 4, sequence (Q13043 whole entry): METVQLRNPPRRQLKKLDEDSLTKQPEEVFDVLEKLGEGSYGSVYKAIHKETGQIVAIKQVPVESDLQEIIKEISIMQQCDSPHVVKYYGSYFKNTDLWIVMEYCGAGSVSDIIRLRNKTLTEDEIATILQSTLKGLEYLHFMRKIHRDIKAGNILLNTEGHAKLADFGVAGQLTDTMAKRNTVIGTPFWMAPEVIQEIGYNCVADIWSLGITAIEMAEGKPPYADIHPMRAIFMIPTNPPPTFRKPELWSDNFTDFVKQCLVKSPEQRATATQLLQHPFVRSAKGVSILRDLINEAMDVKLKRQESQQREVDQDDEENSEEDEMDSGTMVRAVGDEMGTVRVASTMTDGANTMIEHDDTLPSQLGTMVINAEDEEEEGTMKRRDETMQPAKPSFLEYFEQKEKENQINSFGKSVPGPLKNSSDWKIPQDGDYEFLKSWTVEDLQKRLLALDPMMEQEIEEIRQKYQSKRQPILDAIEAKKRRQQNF

C[C@@H]1C[C@H]1C(=O)N1CCN(c2cnc(C#N)c(-c3cnn(C)c3)n2)C[C@H]1C
CLint scaled [1]: < 16 mL/min/kg
Vd [2]: 1.1 L/kg
inhibition [3]: 13%
IC50 [4]: > 100 µM
IC50 (Ephrin type-B receptor 1): 37.7 µM
IC50 [5]: 37.6 µM
IC50 (Aurora kinase A): 16 µM
inhibition [6]: 5%
inhibition [7]: 7%
inhibition at 1 h, 10 µM (MAO-A): 11%
IC50 (CDK7/Cyclin H/MNAT1): > 100 µM
IC50 [8]: > 100 µM
IC50 (Ephrin type-A receptor 2): > 100 µM
IC50 (Ephrin type-A receptor 8): > 100 µM
IC50 (Ephrin type-B receptor 4): > 100 µM
IC50 [9]: > 100 µM
IC50 [10]: > 100 µM
IC50 [11]: > 100 µM
IC50 [12]: > 100 µM
IC50 [13]: > 100 µM
IC50 [14]: > 100 µM
IC50 [15]: > 100 µM
IC50 [16]: > 100 µM
IC50 [17]: > 100 µM
IC50 (Focal adhesion kinase 1): > 100 µM
IC50 [18]: > 100 µM
